Measured values as given in ChEMBL document CHEMBL1126203, “Synthesis and structure-activity relationships of a series of novel benzopyran-containing platelet activating factor antagonists” (J Med Chem, 1992).

System: Rattus norvegicus
Experiment: Compounds were evaluated by intravenous administration along with 100 ug/kg of PAF in rat
Assay type: functional

Work on `CCOC(=O)COc1cc(C(C)CCCc2ccc(F)cc2)cc2c1C1=C(CCN(CC(=O)NC)C1)C(C)(C)O2` (stereo unspecified) yielded an ED50 of 0.6 mg/kg.
